Experimental data reported in patent publication US20170035708A1, “USE OF N-(4-TERT-BUTYLBENZYL)-3-CHLORO-N-[2-(4-CHLORO-3-ETHYL-PHENYL)-ETHYL]-2-FLUORO-5-TRIFLUOROMETHYL-BENZAMIDE FOR THE TREATMENT OF EYE DISEASES” (Hoffmann-La Roche Inc., priority 2013, published 2017).

Experiments:
CETP activity = assay: In vivo inhibition of CETP activity in hamsters
[1] = Pharmacokinetic properties and excretion in the rat; assay type: in vivo
Experimental: (§1) The pharmacokinetic (PK) properties of N-(4-tert-Butyl-benzyl)-3-chloro-N-[2-(4-chloro-3-ethyl-phenyl)-ethyl]-2-fluoro-5-trifluoromethyl-benz-amide were assessed in the rat and cynomolgus monkey. […] The very high protein binding, in combination with moderate membrane permeability, is the likely cause for the low volume of distribution observed in vivo.
(§2) In the rat and cynomolgus monkey, the major excretion route was the bile and feces, independent of the route of administration (approximately 92% of administered dose eliminated). Less than 1% of the dose was eliminated renally.

[2] = Pharmacokinetic properties and excretion in the cynomolgus monkey; assay type: in vivo
Experimental: as §1, §2

Membrane permeability = assay type: in vitro ADME
Experimental: as §1

[3] = Physicochemical properties (solubility, stability, lipophilicity)
Description: N-(4-tert-Butyl-benzyl)-3-chloro-N-[2-(4-chloro-3-ethyl-phenyl)-ethyl]-2-fluoro-5-trifluoromethyl-benz-amide is a potent inhibitor of cholesteryl ester transfer protein (CETP), which was originally developed for the treatment of dyslipidemia and prevention of cardiovascular events. The clinical development was discontinued in 2009 due to strategic portfolio decision; the discontinuation was not due to the safety profile of the product. […] Liquid-filled hard capsules in the dose strength of 60 mg have been developed.
as §1

plasma CETP activity = molecular target: T1, plasma CETP activity (Homo sapiens, UniProt P11597); assay: Plasma CETP activity and CETP mass in combined SAD/MAD clinical study; assay type: in vivo
T1 construct: from tissue; host or cells: plasma of study subjects
T1 sequence (P11597 18-493): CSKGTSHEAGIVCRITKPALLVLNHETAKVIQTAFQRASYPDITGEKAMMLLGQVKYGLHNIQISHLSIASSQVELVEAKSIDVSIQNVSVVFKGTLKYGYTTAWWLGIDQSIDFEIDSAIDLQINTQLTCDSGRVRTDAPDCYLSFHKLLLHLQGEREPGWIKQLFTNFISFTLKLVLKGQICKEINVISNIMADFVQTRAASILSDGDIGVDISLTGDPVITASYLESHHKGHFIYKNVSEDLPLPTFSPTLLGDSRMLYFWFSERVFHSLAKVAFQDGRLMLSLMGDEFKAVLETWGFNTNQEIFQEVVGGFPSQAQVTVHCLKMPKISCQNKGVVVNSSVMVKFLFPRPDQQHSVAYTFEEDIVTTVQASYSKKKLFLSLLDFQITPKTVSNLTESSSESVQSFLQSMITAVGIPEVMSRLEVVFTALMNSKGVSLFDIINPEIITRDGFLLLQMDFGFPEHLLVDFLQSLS
Experimental: The main difference between the different doses was the duration of the inhibition, which was sustained for 24 hours with the two highest tested multiple dose levels (180 mg and 420 mg). […] After multiple doses of N-(4-tert-Butyl-benzyl)-3-chloro-N-[2-(4-chloro-3-ethyl-phenyl)-ethyl]-2-fluoro-5-trifluoromethyl-benz-amide for 14 days, a similar trend in CETP inhibition was observed.

[4] = tested on: Human umbilical vein endothelial cells (HUVEC); assay: alamarBlue viability assay in HUVECs; assay type: cell-based; details: 72 h
Experimental: Human umbilical vein endothelial cells (HUVEC), the growth medium EGM and the basal medium EBM was obtained from Lonza. Additional FCS for the starving medium was used form Invitrogen.
The viability assay with alamarBlue® from Invitrogen was done in 96 well gelatin coated plates from BD.
The tested compounds were dissolved in DMSO at a stock concentration of 10 mM.
VEGF-A165 was obtained from R&D Systems® and has been dissolved at a stock concentration of 100 ug/ml in PBS.
HUVECs cells were maintained in Endothial growth medium (EGM) until Passage 5. For the viability assay HUVECs have been seeded in EBM with 0.5% FCS on gelatin coated 96 well plates at a cell density of 11.000 cells/well. Outer wells were left free and have been filled with medium afterwards. Cells were incubated overnight in a cell culture incubator at 37° C. with 5% CO2. Compounds and VEGF have been diluted in EBM/0.5% FCS to a 20× working concentration. 5 ul of the 20× pre-dilution have been added to the cells. HUVECs which have to be intended to grow under hypoxia conditions have been transferred to a cell culture incubator with 1% O2, 5% CO2 and 37° C. HUVECs grown under normoxia conditions were incubated in a normal cell culture incubator. After 72 h, 11 ul of alamarBlue® have been added to each well of the cells subsequently incubated for 4 h in the cell culture incubator. The absorbance has been detected at 570 nm with a reference wavelength of 600 nm.

[5] = independent of the route of administration

Which “inhibition of CETP activity in vivo” value (CETP activity) does the source give for CCc1cc(CCN(Cc2ccc(C(C)(C)C)cc2)C(=O)c2cc(C(F)(F)F)cc(Cl)c2F)ccc1Cl [Compound 1, N-(4-tert-Butyl-benzyl)-3-chloro-N-[2-(4-chloro-3-ethyl-phenyl)-ethyl]-2-fluoro-5-trifluoromethyl-benzamide] here?
Its value is “inhibition of CETP activity has been demonstrated”.

What about the absolute oral bioavailability [1] of the same compound?
Its absolute oral bioavailability is “relatively low”.

What about the dose eliminated renally [1] of the same compound?
The dose eliminated renally was “Less than 1%”.

And the gastrointestinal absorption [1]?
The gastrointestinal absorption was “limited”.

What about the terminal half-life [1] of the same compound?
The terminal half-life was “medium to long”.

And the total systemic clearance [1]?
Its total systemic clearance is “low”.

What about the volume of distribution [1] of the same compound?
Its volume of distribution is “low”.

And the plasma protein binding ([1]; across species)?
The plasma protein binding was “very high”.

What about the “administered dose eliminated via bile and feces” value [1, 5] of the same compound?
The value was “approximately 92%”.

What about the absolute oral bioavailability [2] of the same compound?
Its absolute oral bioavailability is “relatively low”.

And the dose eliminated renally [2]?
The dose eliminated renally was “Less than 1%”.

And the gastrointestinal absorption [2]?
Its gastrointestinal absorption is “limited”.

What about the terminal half-life [2] of the same compound?
Its terminal half-life is “medium to long”.

And the total systemic clearance [2]?
The total systemic clearance was “low”.

What about the volume of distribution [2] of the same compound?
Its volume of distribution is “low”.

And the plasma protein binding ([2]; across species)?
The plasma protein binding was “very high”.

What about the “administered dose eliminated via bile and feces” value [2, 5] of the same compound?
Its value is “approximately 92%”.

What about the membrane permeability (Membrane permeability) of the same compound?
The membrane permeability was “moderate”.

What about the lipophilicity [3] of the same compound?
Its lipophilicity is “highly lipophilic”.

And the “solubility in aqueous media” value ([3]; aqueous media)?
Its value is “practically insoluble”.

What about the dissolution rate ([3]; as cause of limited absorption) of the same compound?
The dissolution rate was “low”.

And the solubility ([3]; as cause of limited absorption)?
The solubility was “low”.

And the “solubility in common organic solvents” value ([3]; common organic solvents)?
The value was “soluble”.

What about the “stability of the powder” value ([3]; white to off-white powder) of the same compound?
The value was “stable”.

And the CETP mass (plasma CETP activity; after multiple doses)?
Its CETP mass is “dose-dependent and time-dependent increase”.

And the “inhibition of plasma CETP activity” value (plasma CETP activity; first measurement, 2 hours post-dose, Day 1, all doses, healthy and mildly dyslipidemic subjects)?
Its value is “Complete CETP inhibition”.

What about the “duration of the CETP inhibition” value (plasma CETP activity; two highest multiple dose levels (180 mg and 420 mg)) of the same compound?
The value was 24 h.

What about the “alamarBlue assay OD 570 nm-600 nm” value ([4]; 4.1 nM, hypoxia) of the same compound?
Its value is −0.0059.

And the “alamarBlue assay OD 570 nm-600 nm” value ([4]; 4.1 nM, normoxia)?
The value was 0.0073.

What about the “alamarBlue assay OD 570 nm-600 nm” value ([4]; 10.2 nM, hypoxia) of the same compound?
The value was 0.0152.

And the “alamarBlue assay OD 570 nm-600 nm” value ([4]; 10.2 nM, normoxia)?
The value was 0.0075.

What about the “alamarBlue assay OD 570 nm-600 nm” value ([4]; 25.6 nM, hypoxia) of the same compound?
The value was 0.0144.

What about the “alamarBlue assay OD 570 nm-600 nm” value ([4]; 25.6 nM, normoxia) of the same compound?
Its value is 0.0056.

What about the “alamarBlue assay OD 570 nm-600 nm” value ([4]; 64 nM, hypoxia) of the same compound?
The value was 0.0118.

What about the “alamarBlue assay OD 570 nm-600 nm” value ([4]; 64 nM, normoxia) of the same compound?
Its value is 0.0062.

What about the “alamarBlue assay OD 570 nm-600 nm” value ([4]; 160 nM, hypoxia) of the same compound?
The value was 0.0233.

And the “alamarBlue assay OD 570 nm-600 nm” value ([4]; 160 nM, normoxia)?
The value was 0.0127.

And the “alamarBlue assay OD 570 nm-600 nm” value ([4]; 400 nM, hypoxia)?
Its value is 0.0326.

And the “alamarBlue assay OD 570 nm-600 nm” value ([4]; 400 nM, normoxia)?
Its value is 0.0223.

And the “alamarBlue assay OD 570 nm-600 nm” value ([4]; 1000 nM, hypoxia)?
The value was 0.0967.

What about the “alamarBlue assay OD 570 nm-600 nm” value ([4]; 1000 nM, normoxia) of the same compound?
Its value is 0.0600.

What about the “alamarBlue assay OD 570 nm-600 nm” value ([4]; 2500 nM, hypoxia) of the same compound?
Its value is 0.1488.

And the “alamarBlue assay OD 570 nm-600 nm” value ([4]; 2500 nM, normoxia)?
The value was 0.1512.

What about the “effect on viability of HUVECs” value ([4]; hypoxia) of the same compound?
Its value is “induced a strong cell survival”.

And the “effect on viability of HUVECs” value ([4]; normoxia)?
Its value is “positive effect of viability”.
